From patent US20140088006A1, “Stem Cell Mobilization and Tissue Repair and Regeneration” (Wellstat Therapeutics Corporation, priority 2011, published 2014)
Where “and” joins values, the source holds several entries; their conditions need not be identical. Equal entries are not always repeated. No end group written: not given here.

Key:
[1] = tested on: white blood cells in peripheral blood; test: White blood cell number after 4 daily subcutaneous injections; type: in vivo, C57Bl/6 male mice; parameters: White blood cell number in peripheral blood: unit not given here; settings: for White blood cell number in peripheral blood: 1 hr after injection
Procedure: (§1) This example is based on a protocol for a 4-day course of once-daily Compound X injections into C57Bl/6 male mice similar to G-CSF. Two effective dose levels of Compound X were found previously to mobilize HSC 1 hr after single injection and were selected for this experiment. Four-month old C57Bl/6 male mice (Jackson Laboratories) were subcutaneously injected with 0.9% saline, 125 μg/kg Compound X or 250 μg/kg Compound X on days 1, 2, 3 and 4 as described in Table 4. Each day, one-hour post injections, peripheral blood from 3 mice per group was harvested from the orbital plexus into EDTA-containing tubes. On day 4, a femur and spleen were also removed from mice to assess by FACS whether any toxicity aroused from repeated injections of Compound X.
(§2) As in the previous example to determine mobilization of colony-forming cells out of the bone marrow, mononuclear cells from peripheral blood were plated into MethoCult 3434 media (Stem Cell Technologies). Briefly, after white blood cell counting, the remaining peripheral blood was diluted (1:1, v/v) with 0.9% saline (APP Pharmaceutical) and layered (2:1, v/v) onto 1-Step™1.077 A (Accurate Chemicals) in 15-ml centrifuge tubes. Cells were centrifuged at 600×g for 20 min at room temperature. The mononuclear cells were harvested from the interface between the plasma layer and the 1-Step™ A solution using a 1-ml syringe and blunt-end needle. The cells were transferred to 15-ml centrifuge tubes and washed twice in 1×PBS. Cells were resuspended in 1 ml of IMDM and cell counts were obtained using the Coulter counter. Cells were placed into 35-mm Petri dishes at 200,000 cells per dish with 5 dishes per group. Cells incubated for 10 days in a 37° C. and 5% CO2 humidified incubator. CFU colonies were then scored using an inverted microscope—CFU-GM detected on day 7 and CFU-GEMM—on day 10. Data presented in Tables 7, 8 and 9, FIGS. 3 and 4.

[2] = tested on: CFU-GEMM / CFU-GM progenitor cells; test: CFU colony assay of peripheral blood after 4 daily subcutaneous injections; type: in vivo, C57Bl/6 male mice; settings: for CFU-GEMM number, AVG / CFU-GEMM number: 1 hr after injection; for CFU-GEMM number: individual dishes
Procedure: as §1, §2

[3] = tested on: CFU-GEMM / CFU-GM colony-forming cells; test: CFU colony assay of peripheral blood on day 7 after 5 daily subcutaneous injections; type: in vivo, DBA/2J male mice
Procedure: Mobilization of hematopoietic stem and progenitor cells from bone marrow into peripheral blood is important for tissue regeneration. However, this physiological mechanism is often insufficient, including in elderly patients and people with diabetes. In order to look at the ability of Compound X mobilized stem cells to mediate tissue regeneration, multiple in vivo injections of Compound X were administered. A group of DBA/2J male mice were injected subcutaneously for 5 consecutive days with 250 ug/kg Compound X in Saline. Another group of mice received injections of vehicle only. Peripheral blood from 3 mice from each of these groups was then harvested from the orbital plexus at 7 days post initial injection. Blood was also harvested and pooled from 3 naïve mice to serve as an additional control group. To determine mobilization of pluripotent colony-forming cells from bone marrow into peripheral blood, mononuclear cells obtained from blood were plated into MethoCult 3434 media (Stem Cell Technologies 03434). Briefly, peripheral blood from three mice was pooled, diluted (1:1, v/v) with 0.9% saline (APP Pharmaceutical) and layered (2:1, v/v) onto 1-Step™1.077 A (Accurate Chemicals AN224510) in 15-ml centrifuge tubes. Cells were centrifuged at 600×g for 20 min at room temperature. The mononuclear cells were harvested from the interface between the plasma layer and the 1-Step™ A solution using a 1-ml syringe and 16G blunt-end needle (Stem Cell Technologies 28120). The cells were transferred to 15-ml centrifuge tubes and washed twice in 1×PBS. The cells were placed into 35-mm Petri dishes at 100,000 cells per dish with 5 dishes per group. Cells incubated for 10 days in a 37° C. and 5% CO2 humidified incubator. CFU-GM colonies consisting of granulocytic and monocytic cells and CFU-GEMM colonies representing mixed cell populations of granulocytes, macrophages and erythroid cells were then scored using an inverted microscope. Blood was taken at Zeitgeber Time 4 (ZT4) which corresponded to the physiological time of cell emigration from bone marrow—the circadian stem cell mobilization peak.

spleen cells = test: Flow cytometry analysis of stem cell phenotypes in spleens on day 7; type: in vivo, mice; settings: 250 μg/kg
[4] = 250 ug/kg s.c. 5 consecutive days, day 7
[5] = 250 ug/kg s.c. 5 consecutive days, day 7, individual dishes
[6] = 250 ug/kg/day for 5 days, day 7
[7] = DBA mice, multiple s.c. 250 ug/kg

## FPHFDLSHGSAQV [Compound X, tridecapeptide that acts on stem cells]
[1]; 125 μg/kg s.c. daily, Day 1
  White blood cell number in peripheral blood: 7.4
[1]; 125 μg/kg s.c. daily, Day 2
  White blood cell number in peripheral blood: 8.8
[1]; 125 μg/kg s.c. daily, Day 3
  White blood cell number in peripheral blood: 6.0
[1]; 125 μg/kg s.c. daily, Day 4
  White blood cell number in peripheral blood: 8.6
[1]; 250 μg/kg s.c. daily, Day 1
  White blood cell number in peripheral blood: 8.6
[1]; 250 μg/kg s.c. daily, Day 2
  White blood cell number in peripheral blood: 8.2
[1]; 250 μg/kg s.c. daily, Day 3
  White blood cell number in peripheral blood: 10.2
[1]; 250 μg/kg s.c. daily, Day 4
  White blood cell number in peripheral blood: 9.2
[1]; multiple daily injections, 125 and 250 μg/kg
  White blood cell number: did not change
[2]; 125 μg/kg s.c. daily, Day 1
  CFU-GEMM number, AVG: 2.4 per 100000 mononuclear cells
  CFU-GEMM number: 2 per 100000 mononuclear cells (4×) and 4 per 100000 mononuclear cells
[2]; 125 μg/kg s.c. daily, Day 2
  CFU-GEMM number, AVG: 2.8 per 100000 mononuclear cells
  CFU-GEMM number: 5 per 100000 mononuclear cells and 3 per 100000 mononuclear cells (2×) and 1 per 100000 mononuclear cells and 2 per 100000 mononuclear cells
[2]; 125 μg/kg s.c. daily, Day 3
  CFU-GEMM number, AVG: 0.4 per 100000 mononuclear cells
  CFU-GEMM number: 1 per 100000 mononuclear cells (2×) and 0 per 100000 mononuclear cells (3×)
[2]; 125 μg/kg s.c. daily, Day 4
  CFU-GEMM number, AVG: 0.8 per 100000 mononuclear cells
  CFU-GEMM number: 0 per 100000 mononuclear cells (2×) and 2 per 100000 mononuclear cells and 1 per 100000 mononuclear cells (2×)
[2]; 250 μg/kg over 4 days, all days
  increase in multilineage CFU-GEMM colonies vs saline: ≥ 2 fold
[2]; 250 μg/kg s.c. daily, Day 1
  CFU-GEMM number, AVG: 2.6 per 100000 mononuclear cells
  CFU-GEMM number: 4 per 100000 mononuclear cells (2×) and 1 per 100000 mononuclear cells and 2 per 100000 mononuclear cells (2×)
[2]; 250 μg/kg s.c. daily, Day 2
  CFU-GEMM number, AVG: 3.6 per 100000 mononuclear cells
  CFU-GEMM number: 2 per 100000 mononuclear cells and 6 per 100000 mononuclear cells (2×) and 3 per 100000 mononuclear cells and 1 per 100000 mononuclear cells
[2]; 250 μg/kg s.c. daily, Day 3
  CFU-GEMM number, AVG: 2.8 per 100000 mononuclear cells
  CFU-GEMM number: 2 per 100000 mononuclear cells (2×) and 4 per 100000 mononuclear cells and 3 per 100000 mononuclear cells (2×)
[2]; 250 μg/kg s.c. daily, Day 4
  CFU-GEMM number, AVG: 4 per 100000 mononuclear cells
  CFU-GEMM number: 4 per 100000 mononuclear cells (3×) and 3 per 100000 mononuclear cells and 5 per 100000 mononuclear cells
[2]; 250 μg/kg, day 3
  increase in CFU-GEMM vs saline: 4.7 fold
[2]; s.c. daily for 4 days
  mobilization of granulocytic and macrophage precursors CFU-GM: did not affect mobilization
[3]; [4]
  CFU-GEMM AVG: 11.4 colonies/100,000 MNCs
  CFU-GEMM Average: 79.8 Colonies/ml of Peripheral Blood
  CFU-GM AVG: 12.4 colonies/100,000 MNCs
  CFU-GM Average: 86.8 Colonies/ml of Peripheral Blood
[3]; [5]
  CFU-GEMM Colony #: 8 colonies/100,000 MNCs (2×) and 13 colonies/100,000 MNCs and 12 colonies/100,000 MNCs and 16 colonies/100,000 MNCs
  CFU-GM Colony #: 13 colonies/100,000 MNCs (2×) and 14 colonies/100,000 MNCs (2×) and 8 colonies/100,000 MNCs
[3]; [6]
  number of circulating CFU-GM: did not change
  total CFU-GEMM number in circulation vs naïve or vehicle mice: 3 times higher
[3]; [7]
  increase in CFU-GEMM number per ml of blood vs saline control group: 3.3 fold
  increase in CFU-GEMM number per ml of blood vs untreated control group: 3.8 fold
Spleen cells
  accumulation of cells with stem cell phenotypes in the spleens: No accumulation
Spleen cells; spleen
  CD34+ Flk-1+, Mean: 0.03
  CD34+ Flk-1−, Mean: 0.05
  CD34− Flk-1+, Mean: 0.38
  CD150+ CD48−, Mean: 0.17
  CD244+ CD48+, Mean: 0.78
  Lin− Kit+ Sca-1+, Mean: 0.07
  Lin− Kit+ Sca-1−, Mean: 0.50
  Lin− Kit^low Sca-1+, Mean: 0.17
